Values after ≈ are worked out from the molar mass of the structure shown. Where a SMILES comes first, the peptide text is derived from it. [ ]: non-standard residue; d: D form. Ac6c = NC1(C(=O)O)CCCCC1; Ac5c = NC1(C(=O)O)CCCC1
Tests used:
Format in all cases: functional
Staphylococcus aureus = assay: Antimicrobial activity against Staphylococcus aureus NBRC 13276 after 16 hrs by microbroth dilution method; conditions: NBRC 13276, 16 h
Escherichia coli = assay: Antimicrobial activity against Escherichia coli NBRC 3972 after 16 hrs by microbroth dilution method; conditions: NBRC 3972, 16 h
Pseudomonas aeruginosa = assay: Antimicrobial activity against Pseudomonas aeruginosa NBRC 13275 after 16 hrs by microbroth dilution method; conditions: NBRC 13275, 16 h

Compound | MIC (Staphylococcus aureus) [µM] | MIC (Escherichia coli) [µM] | MIC (Pseudomonas aeruginosa) [µM]
CC(=O)N[C@H](CCCCN)C(=O)N[C@H](CCCCN)C(=O)NC(C)(C)C(=O)N[C@H](CCCCN)C(=O)N[C@H](CCCCN)C(=O)NC(C)(C)C(=O)N[C@H](CCCCN)C(=O)N[C@H](CCCCN)C(=O)NC(C)(C)C(N)=O | > 800 | > 800 | > 800
CC(=O)N[C@@H](CCCCN)C(=O)N[C@H](CCCCN)C(=O)NC(C)(C)C(=O)N[C@@H](CCCCN)C(=O)N[C@H](CCCCN)C(=O)NC(C)(C)C(=O)N[C@@H](CCCCN)C(=O)N[C@H](CCCCN)C(=O)NC(C)(C)C(N)=O | > 800 | > 800 | > 800
CC(=O)N[C@@H](CCCCN)C(=O)N[C@@H](CCCCN)C(=O)NC(C)(C)C(=O)N[C@@H](CCCCN)C(=O)N[C@@H](CCCCN)C(=O)NC(C)(C)C(=O)N[C@@H](CCCCN)C(=O)N[C@@H](CCCCN)C(=O)NC(C)(C)C(N)=O | > 800 | 400 (≈ 433 µg/mL) | > 800
CC(=O)N[C@@H](CCCCN)C(=O)N[C@@H](CCCCN)C(=O)NC1(C(=O)N[C@@H](CCCCN)C(=O)N[C@@H](CCCCN)C(=O)NC2(C(=O)N[C@@H](CCCCN)C(=O)N[C@@H](CCCCN)C(=O)NC3(C(N)=O)CCCC3)CCCC2)CCCC1 (Ac-KK[Ac5c]KK[Ac5c]KK[Ac5c]-NH2) | > 800 | 50 (≈ 58.1 µg/mL) | 400 (≈ 465 µg/mL)
CC(=O)N[C@@H](CCCCN)C(=O)N[C@@H](CCCCN)C(=O)NC1(C(=O)N[C@@H](CCCCN)C(=O)N[C@@H](CCCCN)C(=O)NC2(C(=O)N[C@@H](CCCCN)C(=O)N[C@@H](CCCCN)C(=O)NC3(C(N)=O)CCCCC3)CCCCC2)CCCCC1 (Ac-KK[Ac6c]KK[Ac6c]KK[Ac6c]-NH2) | > 800 | 25 (≈ 30.1 µg/mL) | 50 (≈ 60.2 µg/mL)
CC(=O)NC(CCCCN)C(=O)NC(CCCCN)C(=O)NC(C)(C)C(=O)NC(CCCCN)C(=O)NC(CCCCN)C(=O)NC(C)(C)C(=O)NC(CCCCN)C(=O)NC(CCCCN)C(=O)NC(C)(C)C(N)=O (racemic) | > 800 | > 800 | > 800
Ac-GIGKFLHSAKKFGKAFVGEIMNS-NH2 | 200 | 50 | 12.5
Ac-KKAKKAKKA-NH2 | > 800 | > 800 | > 800
Ac-KKGKKGKKG-NH2 | > 800 | > 800 | > 800
